These results are taken from patent publication US6042841A, “Cosmetic method of treating skin” (Unilever Home & Personal Care USA Division of Conopco, Inc., priority 1998, dated 2000).

One assay concerns ICAM. As to the kind of experiment: ICAM-1 assay, PMA-induced ICAM production in human skin fibroblasts. It counts as cell-based. The note with it: PMA (10 nM)-treated; N 4. How it is done:
Intracellular adhesion molecules (ICAM) and PEG2 production by human skin fibroblasts can be induced by the inflammatory stimulus PMA (phorbal myristate acetate). PMA represents an external stressor which induces oxidative stress and inflammatory responses in cells. This model is used to model inflammation in vivo.
Primary human foreskin fibroblasts at passage 2 (P2) were seeded into 96-well plates at 10000 cells/well and maintained for 24 hours in an atmosphere of 5% carbon dioxide in Dulbeccos Modified Eagles Medium (DMEM) supplemented with 10% foetal calf serum. […] Phorbal myristate acetate (PMA) (Sigma) was added to the media and the cells incubated for a further 24 hours. […] The fibroblasts/media were then analysed as described below immediately or snap frozen in liquid nitrogen and stored at -70° C. for future analysis. The cells were then counted and data from the dot-blot analysis subsequently standardised to cell number.
ICAM-1 assay: Media were discarded and cells washed with Dulbecco PBS. To the washed cells, 150 μl 0.1% Triton X-100 (Sigma) was added for 3 minutes to extract ICAM from cell membrane. The extracts were transferred to Eppendoff centrifuge tubes and centrifuged at 1000 g for 2 min to remove cell debris. A volume of 100 μl supernatant was used for ICAM assay. The soluble ICAM-1 was assessed with commercially available immunoenzymometric assay kit (R&D Systems). Concentrations of ICAM-1 in the samples were determined based on parallelly running standard curve.

A further assay concerns procollagen-I. In words: Immunohistochemical analysis of procollagen-I expression in photodamaged skin biopsies after topical retinoic acid. The note with it: for No. of Participants showing marked increase in expression of procollagen-I: 0.05% retinoic acid topical. It counts as in vivo, human (women). The source says:
(§1) Two groups of women were recruited with identical or nearly identical degrees of mild to moderate photodamage on each outer forearm. They were supplied with 0.05% retinoic acid in a moisturising base (Retinova®) and also with a colour matched moisturising cream with similar sensory characteristics (Dermacare® lotion), but no active ingredients, as a placebo control. Each participant of the two groups applied the Retinova® to one outer forearm and placebo (Dermacare®) to the other outer forearm. Group 1 applied the products daily to their outer forearms for 14 weeks and the Group 2 applied the products to their outer forearms for 28 weeks. At the end of the studies two full thickness 4 mm punch biopsies were taken from the treated areas of each forearm. Immunohistochemical analysis of the biopsy tissue taken from the participants was performed to identify the effect of retinoic acid treatment on the expression of the skin extracellular matrix components, decorin and procollagen-I, as compared with the placebo treated forearms. The following procedure was followed:
(§2) Antibody dilution buffer for wax sections was composed of Tris Buffered Saline (TBS), 3% bovine serum albumin (BSA), 0.05% Triton X-100 and 0.05% sodium azide. Primary antibodies for procollagen-I (amino terminal) were obtained from Chemicon International Inc. (cat# MAB 1912, rat IgGl) and used on wax sections at a dilution of 1:800, overnight at 4° C. after the section had been pre-treated with trypsin (0.5 mg/ml, 25 minutes, 37° C.). Primary antibodies for decorin were obtained from Biogenesis (rabbit polyclonal) and used on wax sections at a dilution of 1:800, overnight at 4° C. Anti-rat biotinylated secondary antibodies, obtained from DAKO (cat# E0468, rabbit polyclonal), were applied to wax sections at a dilution of 1:400. Anti-rabbit biotinylated secondary antibodies, obtained from Amersham (cat# RPN 1004, donkey polyclonal), were applied to wax sections at a dilution of 1:400. Streptavidin conjugated alkaline phosphatase, obtained from Zymed (cat# 43-4322), was used at a concentration of 1:2500. […]

Assay [1] has as its system decorin. In words: Dot blot assay for decorin synthesis in human dermal fibroblasts. In kind it is cell-based. The settings on record: Homo sapiens, Fibroblast, 24 h; 1 μm (so in the source); p=0.035, n=4; comparative trial; read-out: Decorin synthesis relative to vehicle treated control value of 100. How it is done: Primary human foreskin fibroblasts at passage 2 (P2) were seeded into 12-well plates at 10000 cells/cm^2 and maintained for 24 hours in an atmosphere of 5% carbon dioxide and 4% oxygen in Dulbeccos Modified Eagles Medium (DMEM) supplemented with 10% foetal calf serum. After this time the cells were washed with serum free DMEM and then incubated in fresh serum free DMEM for a further 60 hours. The fibroblast monolayers were then washed again with serum free DMEM. Test reagents and vehicle controls were added to the cells in triplicate in a final volume of 0.4 ml/well fresh serum free DMEM and incubated for a further 24 hours. This fibroblast conditioned medium was either analysed immediately or snap frozen in liquid nitrogen and stored at -70° C. for future analysis. The cells were then counted and data from the dot-blot analysis subsequently standardised to cell number.
Samples of conditioned medium from dermal fibroblasts treated with vehicle (as a control) or test reagents were supplemented with 20 mM dithiothreitol (1:10 dilution of 200 mM stock solution) and 0.1% sodium dodecylsulphate (1:100 dilution of 10% stock solution), mixed well and then incubated at 75° C. for 2 minutes. A standard for the assay was generated by serial dilution of neat fibroblast conditioned medium from fibroblasts seeded at 10000 cells/cm^2 in a 175 cm^2 flask and maintained in serum free DMEM as described above. Assay samples were subsequently applied in triplicate to a prewetted sheet of Immobilon-P transfer membrane using the 96-well Bio-Dot Apparatus from Bio-Rad as described in the manufacturers guidelines. Approximately 200 μl of medium was applied per well. […] Dot intensity was assessed by computer-assisted image analysis using the quantification tools in ImageQuant™, standardised to cell number and the effects of various test reagents on decorin and procollagen-I synthesis were determined relative to a vehicle treated control value of 100 arbitrary units.

Assay [2] concerns decorin. As to the kind of experiment: Immunohistochemical analysis of decorin expression in photodamaged skin biopsies after topical retinoic acid. It counts as in vivo, human (women). The settings on record: for No. of Participants showing marked increase in expression of decorin: 0.05% retinoic acid topical.
Excerpt: as §1, §2

For the next assay, the system named is keratinocytes. In words: Keratinocyte SDS viability assay (Neutral Red). It counts as cell-based. The settings on record: Keratinocyte; SDS 2 μg/ml, PA 0; 24 hours; n 8. The procedure: After incubating for 24 hours the medium was removed and the viability determined by the Neutral Red method.
[3] abbreviates: Group 1 after 14 weeks, total 16 participants, daily.
[4] abbreviates: Group 2 after 28 weeks, total 15 participants.
Setting [5] is: topical application of Retinova, vs placebo.

On to `CCCCCCCCCCCCCC(=O)O[C@@H]1[C@@H](C)[C@@]2(O)[C@@H](C=C(CO)C[C@]3(O)C(=O)C(C)=C[C@@H]23)[C@@H]2C(C)(C)[C@]12OC(C)=O` [PMA, phorbal myristate acetate, reference compound], for which the ICAM in the assay with ICAM was found to be 14.42 ± 1.86 ng/mL.

As to `CC1=C(/C=C/C(C)=C/C=C/C(C)=C/C(=O)O)C(C)(C)CCC1` [Retinoic Acid, retinoic acid], the “No. of Participants showing marked increase in expression of procollagen-I” value is on record as 9 in the assay on procollagen-I (setting [3]) and 10 in the assay with procollagen-I (setting [4]). Moreover, in the assay on procollagen-I (setting [5]), the “procollagen-I expression in photodamaged skin (in words)” value is on record as “marked upregulation”. The activity at 1 µM in the assay with decorin [1] was determined as 138 ± 14%. Further, the entries for the “No. of Participants showing marked increase in expression of decorin” value in the assay on decorin [2] (setting [3]) and with decorin [2] (setting [4]) were 10 and 15, respectively. Besides, the “decorin expression in photodamaged skin (in words)” value in the assay on decorin [2] (setting [5]) was “marked upregulation”.

The compound `CCCCCCCCCCCCOS(=O)(=O)[O-].[Na+]` [SDS, sodium dodecyl sulphate, reference compound] registered a viability at 2 µg/mL with keratinocytes of 55.8%.

As usually defined, the viability is a read-out of living cells in per cent, often relative to untreated cells. Low readings indicate a greater loss of cells, high ones better survival.
